Laboratory results taken from patent publication US5698567A, “Heterocyclic spiro compounds” (Adir Et Compagnie, priority 1995, dated 1997).
Where a name gives a salt, the structure may show the parent alone.

Tests used:
[1] = tested on: synthesis of PGE2 by the peritoneal PMN of rats; experiment: Inhibition of the synthesis of PGE2 by the peritoneal PMN of rats in vitro; assay type: cell-based, rat; conditions: A23187; for inhibition at 100 µM: 10^-4 M; for inhibition at 100 µM / inhibition at 10 µM: rat peritoneal PMN; for inhibition at 10 µM: 10^-5 M; for IC50: rat peritoneal PMN in vitro
Procedure: (§1) 5-Lipoxygenase-inhibiting activity was determined on peritoneal leukocytes of rats. Leukocytosis is induced in male OFA rats (IFFA CREDO) weighing 200-250 g by the intraperitoneal injection of 12% sodium caseinate. 18 hours later, the cells are collected by washing the abdominal cavity. The number of cells is adjusted to 2×10^6 /ml.
(§2) The cell suspension is incubated for 10 minutes at 37° C. in the presence of Ca^2+ 5×10^-4 M and Mg^2+ 2×10^-3 M and of various concentrations of the test products. The cells are then stimulated with the calcium ionophore A23187 at a concentration of 10^-6 M for 5 minutes at 37° C. Controls are carded out by incubating the cells with the solvent for the products: 2% DMSO.
(§3) Metabolism of arachidonic acid by the peritoneal PMN of rats stimulated
(§4) for 5 minutes in vitro by the calcium ionophore (A23187): 10^-6 M.
(§5) Incubation of the products with the cells for 10 minutes prior to
(§6) stimulation with the ionophore.

5-lipoxygenase [2] = experiment: Inhibition of the synthesis of LTB4 by the peritoneal PMN of rats in vitro (5-lipoxygenase-inhibiting activity); assay type: cell-based, rat; conditions: for LTB4 % Inhibition: rat peritoneal PMN; for LTB4 % Inhibition / IC50: A23187 10^-6 M; for IC50: rat peritoneal PMN in vitro
Excerpt: 1.1 Determination of 5-1ipoxygenase-inhibiting activity in vitro (see Goldyne M. E., Burrish G. F., Poubelle P. and Borgeat P., Arachidonic Acid Metabolism among human mononuclear leukocytes. The Journal of Biological Chemistry. Vol. 259, N° 4, p. 8815-8819, 1984, and New Chang C. and Gin Wensu. Stimulation of 5-Lipoxygenase Activity in Polymorphonuclear Leukocytes of Rats by Caseinate Treatment. Biochemical Pharmacology. Vol. 36, N° 8, p. 3033-3036, 1987).
as §1, §2
After stopping the reaction at +4° C. and centrifugation, the quantity of LTB4 in ng/2×10^6 cells in the supernatants is determined by the E.I.A. method (Statlergenes France). The percentage inhibition is calculated as follows: [formula]
as §3, §4, §5, §6

5-lipoxygenase [3] = experiment: Inhibition of the synthesis of LTB4 in total blood of rats ex vivo (5-lipoxygenase-inhibiting activity); parameters: species or system rat; conditions: 60 μmol/kg p.o., 1 h; A23187 5 × 10^-5 M, n = 8
Procedure: 1.2 Determination of 5-lipoxygenase-inhibiting activity ex vivo (see Brideau C., Chan C., Charleson S., Denis D. et al. Pharmacology of MK-0591 (3-[1-(4-chlorobenzyl)-3-(t-butyl-thio)-5(quinolin-2-yl-methoxy)-indol-2-yl]-2,2-dimethyl propanoic acid), a Potent, Orally Active Leukotriene Biosynthesis Inhibitor. Can. J. Physiol. Pharmacol. Vol. 70, p. 799-807, 1992).
Inhibition of the biosynthesis of leukotrienes ex vivo following oral administration of the compounds was determined by studying the production of leukotrienes on total blood of rats stimulated in vitro by the calcium ionophore at time 1 hour after oral administration of the compounds.
The various products are administered in suspension in hydroxyethylcellulose: 0.5% H.E.C. at a dose of 60 μmol/kg. Each product is studied on a group of 8 different animals. A control group receives 0.5% H.E.C. only. After intracardial removal of the blood from each rat (male Sprague Dawley rats weighing 150-200 g IFFA CREDO), 1 ml of heparinised blood is incubated with the calcium ionophore A23 187 at a concentration of 5×10^-5 M for 10 minutes at 37° C. The blood is then centrifuged immediately and 100 μl of plasma are extracted in 400 μl of methanol. After centrifugation, the supernatant is evaporated to dryness under N2, the dry residue is taken up in buffer solution, and the LTB4 is assayed by the E.I.A. method (Stallergenes France).
The percentage inhibition is expressed as follows: [formula] 2/Results
Average relative to all controls n = 31
Products administered p.o. 1 hour before removal of blood n = 8
Total blood of rats stimulated for 10 minutes in vitro by the calcium

SMILES | IC50 (5-lipoxygenase [2]) | LTB4 % Inhibition (5-lipoxygenase [2]; 10^-7 M) | LTB4 % Inhibition (5-lipoxygenase [2]; 10^-6 M) | further results
O=C1NCC2(CCN(CC(CCc3ccccc3)c3ccc(OCc4ccc5ccccc5n4)cc3)CC2)O1 (racemic) [Example 33, (R,S)-8-{4-phenyl-2-[4-(quinol-2-ylmethoxy)phenyl]butyl}-3,8-diaza-1-oxa-2-oxospiro[4,5]decane] | – | 86% | – | inhibition at 100 µM [1]: 94%; inhibition at 10 µM [1]: 7%; LTB4 % Inhibition (5-lipoxygenase [2]; 4.10^-8 M): 54%; LTB4 % Inhibition (5-lipoxygenase [2]; 10^-8 M): 6%; % Inhibition of the synthesis of LTB4 in total blood of rats ex vivo (5-lipoxygenase [3]): 48%
O=C1NCC2(CCN(C(=O)C(c3ccc(OCc4ccc5ccccc5n4)cc3)C3CCCC3)CC2)O1 (racemic) [Example 43, (R,S)-8-{cyclopentyl-[4-(quinol-2-ylmethoxy)phenyl]acetyl}-3,8-diaza-1-oxa-2-oxospiro[4,5]decane hydrochloride] | > 100 nM | 8% | – | –
O=C1NCC2(CCN(CC(Cc3ccc(Cl)cc3)c3ccc(OCc4ccc(-c5ccccc5)cn4)cc3)CC2)O1 (racemic) [Example 35, (R,S)-8-{3-(4-chlorophenyl)-2-[4-(5-phenylpyrid-2-ylmethoxy)phenyl]propyl}-3,8-diaza-1-oxa-2-oxospiro[4,5]decane] | > 1000 nM | – | – | –
O=C1NCC2(CCN(CC(O)c3ccc(OCc4ccc5ccccc5n4)cc3)CC2)O1 (racemic) [Example 5, (R,S)-8-{2-hydroxy-2-[4-(quinol-2-ylmethoxy)phenyl]ethyl}-3,8-diaza-1-oxa-2-oxospiro[4,5]decane] | – | 15% | 95% | IC50 [1]: > 100000 nM
O=C1NCC2(CCN(C(=O)Cc3ccc(OCc4ccc5ccccc5n4)cc3)CC2)O1 [Example 29, 8-{[4-(quinol-2-ylmethoxy)phenyl]acetyl}-3,8-diaza-1-oxa-2-oxospiro[4,5]decane] | > 1000 nM | 30% | 18% | –
Cn1c(=O)ccc2cc(COc3ccc(C(c4ccccc4)N4CCC5(CC4)CNC(=O)O5)cc3)ccc21 (racemic) [Example 25, (R,S)-8-{[4-(1-methyl-2-oxo-1H-quinol-6-ylmethoxy)phenyl]phenylmethyl}-3,8-diaza-1-oxa-2-oxospiro[4,5]decane] | – | 8% | 7% | –
O=C1NCC2(CCN(C(c3ccccc3)c3ccc(OCc4ccc5ccccc5c4)cc3)CC2)O1 (racemic) [Example 23, (R,S)-8-{[4-(naphth-2-ylmethoxy)phenyl]phenylmethyl}-3,8-diaza-1-2-oxospiro[4,5]decane] | > 1000 nM | 9% | – | –
O=C1NCC2(CCN(CCc3ccc(OCc4ccc5ccccc5n4)cc3)CC2)O1 [Example 2, 8-{2-[4-(quinol-2-ylmethoxy)phenyl]ethyl}-3,8-diaza-1-2-oxospiro[4,5]decane] | – | – | 90% | inhibition at 100 µM [1]: 23%; IC50 [1]: > 100000 nM
O=C1NCC2(CCN(CC(c3ccc(OCc4ccc5ccccc5n4)cc3)C3CCCC3)CC2)O1 (racemic) [Example 36, (R,S)-8-{2-cyclopentyl-2-[4-(quinol-2-ylmethoxy)phenyl]ethyl}-3,8-diaza-1-oxa-2-oxospiro[4,5]decane hydrochloride] | > 100 nM | – | – | –
O=C1NCC2(CCN(CC(c3ccccc3)c3ccc(OCc4ccc(-c5ccccc5)cn4)cc3)CC2)O1 (racemic) [Example 9, (R,S)-8-{2-phenyl-2-[4-(5-phenylpyrid-2-ylmethoxy)phenyl]ethyl}-3,8-diaza-1-oxa-2-oxospiro[4,5]decane] | > 100 nM | – | – | –
O=C1NCC2(CCN(CCc3ccccc3)CC2)O1 [fenspiride, 8(2-phenylethyl)-3,8-diaza-1-oxa-2-oxospiro[4,5]decane, reference compound] | – | – | – | activity of reference product tested under the same conditions (Table 1) (5-lipoxygenase [2]; 10^-4 M): inactive
O=C1NC2(CCN(CC(c3ccccc3)c3ccc(OCc4ccc5ccccc5n4)cc3)CC2)CO1 (racemic) [Example 11, (R,S)-8-{2-phenyl-2-[4-(quinol-2-ylmethoxy)phenyl]ethyl}-1,8-diaza-3-oxa-2-oxospiro[4,5]decane] | > 100 nM | 38% | – | LTB4 % Inhibition (5-lipoxygenase [2]; 10^-5 M): 76%
O=C1NCC2(CCN(CC(=O)c3ccc(OCc4ccc5ccccc5n4)cc3)CC2)O1 [Example 28, 8-{2-oxo-2-[4-(quinol-2-ylmethoxy)phenyl]ethyl}-3,8-diaza-1-oxa-2-oxospiro[4,5]decane] | > 1000 nM | – | 37% | –

Continued, in another order:

IC50 (5-lipoxygenase [2]) | SMILES | LTB4 % Inhibition (5-lipoxygenase [2]; 10^-7 M) | LTB4 % Inhibition (5-lipoxygenase [2]; 10^-6 M) | further results
100 nM | O=C1OC2(CCN(CC(c3ccccc3)c3ccc(OCc4ccc5ccccc5n4)cc3)CC2)CN1CCc1ccccc1 (racemic) [Example 12, (R,S)-3-(2-phenylethyl)-8-{2-phenyl-2-[4-(quinol-2-ylmethoxy)phenyl]ethyl}-3,8-diaza-1-oxa-2-oxospiro[4,5]decane] | 53% | – | inhibition at 100 µM [1]: 86%; inhibition at 10 µM [1]: 92%; IC50 [1]: < 10000 nM; LTB4 % Inhibition (5-lipoxygenase [2]; 10^-5 M): 98%
> 100 nM | c1ccc(C(CN2CCC3(CC2)OCCO3)c2ccc(OCc3ccc4ccccc4n3)cc2)cc1 (racemic) [Example 10, (R,S)-8-{2-phenyl-2-[4-(quinol-2-ylmethoxy)phenyl]ethyl}-8-aza-1,4-dioxaspiro[4,5]decane dihydrochloride] | 28% | – | LTB4 % Inhibition (5-lipoxygenase [2]; 10^-5 M): 92%
> 100000 nM | Cn1c(=O)ccc2cc(COc3ccc(CCN4CCC5(CC4)CNC(=O)O5)cc3)ccc21 [Example 3, 8-{2-[4-[(1-methyl-2-oxo-1H-quinol-6-yl)methoxy]phenyl]ethyl}-3,8-diaza-1-oxa-2-oxospiro[4,5]decane] | – | – | –
> 1000 nM | O=C1NCC2(CCN(C(=O)c3ccc(OCc4ccc5ccccc5n4)cc3)CC2)O1 [Example 30, 8-[4-(quinol-2-ylmethoxy)benzoyl]-3,8-diaza-1-oxa-2-oxospiro[4,5]decane] | – | 14% | –
> 1000 nM | O=C1NCC2(CCN(CC(c3ccccc3)c3ccc(OCc4ccc5ccccc5c4)cc3)CC2)O1 (racemic) [Example 7, (R,S)-8-{2-[4-(naphth-2-ylmethoxy)phenyl]-2-phenylethyl}-3,8-diaza-1-oxa-2-oxospiro[4,5]decane] | 36% | – | –
> 1000 nM | O=C1NCC2(CCN(CC(Cc3ccccc3)c3ccc(OCc4ccccc4)cc3)CC2)O1 (racemic) [Example 31, (R,S)-8-[2-(4-benzyloxyphenyl)-3-phenylpropyl]-3,8-diaza-1-oxa-2-oxospiro[4,5]decane hydrochloride] | – | 16% | –
> 100 nM | CC1NC(=O)OC12CCN(CC(c1ccccc1)c1ccc(OCc3ccc4ccccc4n3)cc1)CC2 (racemic) [Example 13, (R,S), (R,S)-4-methyl-8-{2-phenyl-2-[4-quinol-2-ylmethoxy)phenyl]ethyl}-3,8-diaza-1-oxa-2-oxospiro[4,5]decane] | 21% | – | LTB4 % Inhibition (5-lipoxygenase [2]; 10^-5 M): 91%
> 100 nM | O=C1NCC2(CCN(C(c3ccccc3)c3ccc(OCc4ccc(-c5ccccc5)cn4)cc3)CC2)O1 (racemic) [Example 26, (R,S)-8-{phenyl-[4-(5-phenylpyrid-2-ylmethoxy)phenyl]methyl}-3,8-diaza-1-oxa-2-oxospiro[4,5]decane] | – | – | –
